Consider 26 compounds from patent US11566030B2, “Substituted 2,6-dihydropyrrolo[3,4-c]pyrazoles as pyruvate kinase activators” (priority 2021, dated 2023).

Like-named read-outs stand apart in the source and are kept apart here.

The target in the test is T1, Human pyruvate kinase R (PKR) (Homo sapiens, UniProt P30613).
T1 construct: Human pyruvate kinase R (PKR), residues 14-574; 6xHis-8xArg-SUMO (N, cleaved yes); host or cells: E. coli
Nature of the test: Biochemical assay for activation of pyruvate kinase R (Kinase-Glo luminescence, ATP generation). The settings on record: for Emax: read-out: PKR % activation, maximal activation level achieved with each compound relative to the activation level achieved by AG-348 @ 10 μM; for PKR % activation: maximal activation level achieved with each compound relative to the activation level achieved by AG-348 @ 10 μM. Here is the method:
Human pyruvate kinase R (PKR), residues 14-574, and human pyruvate kinase M2, residues 1-531, were cloned into expression plasmids and obtained from ATUM Bio (Newark, Calif.). Proteins were translated as fusions with 6×-His,8×-Arg, and SUMO at the N-terminus. A third construct of human PKR was truncated, residues 50-574, and similarly cloned for use in crystallography experiments. All proteins were cloned, expressed in E. coli, and purified using similar protocols. Cells were grown at 30° C. in Luria-Bertani broth supplemented with 0.4% glucose to OD600=0.8 and induced with 0.4 mM IPTG at 16° C. for 18 hours. Cells were harvested by centrifugation, resuspended in 50 mM potassium phosphate pH 8.0, 500 mM NaCl, 25 mM imidazole pH 8.0, and 3 mM β-mercaptoethanol. Cells were lysed using a LM20 microfluidizer from Microfluidics (Westwood, Mass.). The crude lysate was immediately supplemented with 0.2 mM phenylmethylsulfonyl fluoride (PMSF) and centrifuged at 20,000 g for 20 minutes. The soluble fraction was subsequently incubated with 2 mL Ni-NTA (GE Healthcare) per 1,000 ODs for 1 hour at 4° C. Following incubation with the Ni-NTA resin, lysate was removed by pelleting resin at 2,500 g for 3 minutes and washed 3 times with 9 bed volumes of 50 mM potassium phosphate pH 8.0, 500 mM NaCl, 25 mM imidazole, and 3 mM β-mercaptoethanol. Following the batch wash Ni-NTA resin was loaded onto a gravity column and His-tagged protein was eluted with 6 bed volumes of 10 mM Tris/HCl pH 8.0, 200 mM NaCl, 500 mM imidazole, and 3 mM β-mercaptoethanol. Eluted protein was dialyzed overnight against 10 mM Tris/HCl pH 8.0, 200 mM NaCl, and 1 mM DTT and the 6×-His-8×-Arg-SUMO-tag was cleaved using a 20:1 molar ratio of protein: 3C protease. The protein was purified by anion exchange chromatography on a HiTrapQ or MonoQ 10/100 GL column (GE Healthcare) via a linear NaCl gradient and twice by size exclusion chromatography using a Superdex S200 26/60 column (GE Healthcare) run in 10 mM Tris/HCl pH 8.0, 200 mM NaCl, 10 mM MgCl2, 1 mM DTT. Proteins were concentrated to −12 mg/mL for crystallization and flash frozen for storage.
Biochemical assay for Activation of Pyruvate Kinase R
Activation of pyruvate kinase R (PKR) and pyruvate kinase M2 (PKM2) were measured using a luminescence based measurement of ATP generation and the Kinase-Glo luminescent kinase reagent kit.

Where [1] appears, read: PKR AC50 (nM), 0.1 nM PKR, 0.3 mM ADP, 0.1 mM PEP, 1% DMSO.

T1 sequence (P30613 14-574): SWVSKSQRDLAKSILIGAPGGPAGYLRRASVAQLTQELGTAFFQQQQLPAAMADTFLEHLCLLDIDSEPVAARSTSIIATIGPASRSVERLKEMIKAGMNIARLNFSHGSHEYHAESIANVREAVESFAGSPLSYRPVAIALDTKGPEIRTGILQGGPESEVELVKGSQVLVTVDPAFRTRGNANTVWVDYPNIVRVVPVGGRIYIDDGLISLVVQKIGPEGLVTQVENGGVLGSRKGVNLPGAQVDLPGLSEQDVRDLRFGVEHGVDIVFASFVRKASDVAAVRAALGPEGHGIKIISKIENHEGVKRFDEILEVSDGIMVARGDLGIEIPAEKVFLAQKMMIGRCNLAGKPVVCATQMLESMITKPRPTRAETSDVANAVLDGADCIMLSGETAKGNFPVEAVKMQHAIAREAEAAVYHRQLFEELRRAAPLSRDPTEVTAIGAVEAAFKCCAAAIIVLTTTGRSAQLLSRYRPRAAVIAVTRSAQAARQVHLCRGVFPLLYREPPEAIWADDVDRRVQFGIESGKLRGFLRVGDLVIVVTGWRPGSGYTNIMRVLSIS

`C[C@](CO)(C(=O)N1Cc2cn(S(=O)(=O)c3cnn(CC(F)F)c3)nc2C1)c1ccccn1` (single isomer, unassigned) [Compound 10]: the Emax turned out to be 112%. The compound further showed a half-maximal activity concentration (AC50) under setting [1] of 116 nM.

With `O=C([C@H](O)c1ncccc1F)N1Cc2cn(S(=O)(=O)c3ccn(CC(F)F)n3)nc2C1` (single isomer, unassigned) [Compound 28], the Emax came out at 85%. For the same compound, the AC50 under setting [1] came out at 3400 nM.

As to `O=C([C@@H](O)c1ncccc1F)N1Cc2cn(S(=O)(=O)c3ccn(CC(F)F)n3)nc2C1` (single isomer, unassigned) [Compound 29], the Emax worked out at 86%. Moreover, under setting [1], the AC50 came out at 420 nM.

As for `O=C([C@H](CO)c1ncccc1F)N1Cc2cn(S(=O)(=O)c3ccn(CC(F)F)n3)nc2C1` (single isomer, unassigned) [Compound 31], half-maximal activity (AC50) was put at 3600 nM and the Emax came to 45%.

Take `O=C([C@@H](CO)c1ncccc1F)N1Cc2cn(S(=O)(=O)c3ccn(CC(F)F)n3)nc2C1` (single isomer, unassigned) [Compound 32]: the AC50 amounted to 40 nM and the Emax worked out at 114%.

For the compound `O=C([C@H](O)c1ncccc1F)N1Cc2cn(S(=O)(=O)c3cnn(CC(F)F)c3)nc2C1` (single isomer, unassigned) [Compound 38], the activity was half-maximal at 1800 nM (AC50) and the Emax came out at 121%.

For the compound `O=C([C@@H](O)c1ncccc1F)N1Cc2cn(S(=O)(=O)c3cnn(CC(F)F)c3)nc2C1` (single isomer, unassigned) [Compound 39], the AC50 amounted to 120 nM and the Emax was found to be 90%.

Turning to `O=C([C@H](O)c1ccccc1F)N1Cc2cn(S(=O)(=O)c3cnn(CC(F)(F)F)c3)nc2C1` (single isomer, unassigned) [Compound 40], the Emax was 53%. Under setting [1], this compound displayed a half-maximal activity concentration (AC50) of 81 nM.

On to `O=C([C@H](O)c1ccccc1F)N1Cc2cn(S(=O)(=O)c3cnn(CC(F)(F)F)c3)nc2C1` (single isomer, unassigned) [Compound 41], for which the PKR % activation stood at 40%. Moreover, half-maximal activity under setting [1] (AC50) was put at 3400 nM.

In the case of `O=C([C@H](CO)c1ncccc1F)N1Cc2cn(S(=O)(=O)c3cnn(CC(F)F)c3)nc2C1` (single isomer, unassigned) [Compound 42], the Emax is 102%. This compound yielded an AC50 under setting [1] of 2100 nM.

Turning to `O=C([C@@H](CO)c1ncccc1F)N1Cc2cn(S(=O)(=O)c3cnn(CC(F)F)c3)nc2C1` (single isomer, unassigned) [Compound 43], the Emax was 108%. The AC50 under setting [1] turned out to be 29 nM.

`O=C([C@H](OCCO)c1ccccc1F)N1Cc2cn(S(=O)(=O)c3ccn(CC(F)(F)F)n3)nc2C1` (single isomer, unassigned) [Compound 85] came in with a PKR % activation of 103%. Moreover, under setting [1], the half-maximal activity concentration (AC50) is above 10000 nM.

Consider `O=C([C@H](OCCO)c1ccccc1F)N1Cc2cn(S(=O)(=O)c3ccn(CC(F)(F)F)n3)nc2C1` (single isomer, unassigned) [Compound 86], for which the PKR % activation stood at 0%. Further, under setting [1], the activity was half-maximal at 1.1 nM (AC50).

For the compound `COCCOc1ccccc1[C@@H](CO)C(=O)N1Cc2cn(S(=O)(=O)c3cnn(CC(F)F)c3)nc2C1` (single isomer, unassigned) [Compound 92], the Emax is 0%.

In the case of `COCCOc1ccccc1[C@H](CO)C(=O)N1Cc2cn(S(=O)(=O)c3cnn(CC(F)F)c3)nc2C1` (single isomer, unassigned) [Compound 93], the concentration at half-maximal activity (AC50) stood at 120 nM and the Emax came to 180%.

For `O=C([C@H](CO)c1ccccc1OCCO)N1Cc2cn(S(=O)(=O)c3cnn(CC(F)F)c3)nc2C1` (single isomer, unassigned) [Compound 109], the AC50 is 26 nM and the Emax came out at 63%.

For `O=C([C@@H](CO)c1ccccc1OCCO)N1Cc2cn(S(=O)(=O)c3cnn(CC(F)F)c3)nc2C1` (single isomer, unassigned) [Compound 110], the activity was half-maximal at 37 nM (AC50) and the Emax turned out to be 146%.

Take `C[C@@](CO)(C(=O)N1Cc2cn(S(=O)(=O)c3cnn(CC(F)F)c3)nc2C1)c1ccccn1` (single isomer, unassigned) [Compound 123]: the Emax was 123%. This compound came in with an AC50 under setting [1] above 10000 nM.

In the case of `O=C([C@H](CO)c1ccccc1)N1Cc2cn(S(=O)(=O)c3cnn(CC(F)F)c3)nc2C1` [Compound 1, (2S)-1-(2-{[1-(2,2-difluoroethyl)-1H-pyrazol-4-yl]sulfonyl}-2H,4H,5H,6H-pyrrolo[3,4-c]pyrazol-5-yl)-3-hydroxy-2-phenylpropan-1-one], the Emax is 97%. The same compound registered an AC50 under setting [1] of 5.4 nM.

With `O=C([C@H](CO)c1ccccc1F)N1Cc2cn(S(=O)(=O)c3cnn(CC(F)F)c3)nc2C1` [Compound 2, (2S)-1-(2-{[1-(2,2-difluoroethyl)-1H-pyrazol-4-yl]sulfonyl}-2H,4H,5H,6H-pyrrolo[3,4-c]pyrazol-5-yl)-2-(2-fluorophenyl)-3-hydroxypropan-1-one], the Emax was found to be 110%. This compound displayed an AC50 under setting [1] of 4.7 nM.

With `O=C([C@H](CO)c1ccccc1F)N1Cc2cn(S(=O)(=O)c3cnn(CC(F)(F)F)c3)nc2C1` [Compound 3, (2S)-2-(2-fluorophenyl)-3-hydroxy-1-(2-{[1-(2,2,2-trifluoroethyl)-1H-pyrazol-4-yl]sulfonyl}-2H,4H,5H,6H-pyrrolo[3,4-c]pyrazol-5-yl)propan-1-one], the Emax was 108%. Also, the AC50 under setting [1] is 7.1 nM.

On to `O=C([C@H](O)c1ccccc1)N1Cc2cn(S(=O)(=O)c3cnn(CC(F)F)c3)nc2C1` [Compound 4, (2R)-1-(2-{[1-(2,2-difluoroethyl)-1H-pyrazol-4-yl]sulfonyl}-2H,4H,5H,6H-pyrrolo[3,4-c]pyrazol-5-yl)-2-hydroxy-2-phenylethan-1-one], for which half-maximal activity (AC50) was put at 22 nM and the Emax was 62%.

In the case of `O=C([C@H](CO)c1ccccc1F)N1Cc2cn(S(=O)(=O)c3cnn(CCF)c3)nc2C1` [Compound 5, (2S)-1-(2-{[1-(2-fluoroethyl)-1H-pyrazol-4-yl]sulfonyl}-2H,4H,5H,6H-pyrrolo[3,4-c]pyrazol-5-yl)-2-(2-fluorophenyl)-3-hydroxypropan-1-one], the Emax was determined as 88%. Besides, the AC50 under setting [1] amounted to 2.7 nM.

As to `C[C@H](O)[C@@H](C(=O)N1Cc2cn(S(=O)(=O)c3cnn(CC(F)F)c3)nc2C1)c1ccccc1` [Compound 6, (2S,3S)-1-(2-{[1-(2,2-difluoroethyl)-1H-pyrazol-4-yl]sulfonyl}-2H,4H,5H,6H-pyrrolo[3,4-c]pyrazol-5-yl)-3-hydroxy-2-phenylbutan-1-one], the concentration at half-maximal activity (AC50) amounted to 11 nM and the Emax was 86%.

With `C[C@@H](O)[C@@H](C(=O)N1Cc2cn(S(=O)(=O)c3cnn(CC(F)F)c3)nc2C1)c1ccccc1` [Compound 7, (2S,3R)-1-(2-{[1-(2,2-difluoroethyl)-1H-pyrazol-4-yl]sulfonyl}-2H,4H,5H,6H-pyrrolo[3,4-c]pyrazol-5-yl)-3-hydroxy-2-phenylbutan-1-one], the AC50 was 17 nM and the Emax was 102%.

`O=C(N1Cc2cn(S(=O)(=O)c3cnn(CC(F)F)c3)nc2C1)C1(c2ncccc2Cl)COC1` [Compound 8, 3-chloro-2-(3-[2-[1-(2,2-difluoroethyl)pyrazol-4-ylsulfonyl]-4H,6H-pyrrolo[3,4-c]pyrazole-5-carbonyl]oxetan-3-yl)pyridine]: the Emax worked out at 103%. This compound had an AC50 under setting [1] of 5.7 nM.
